# Experimental data: ChEMBL document CHEMBL6074678, “Selectively Antagonizing the NOD1-Mediated Inflammatory Signaling Pathway Mitigates the Gastric Inflammation Induced by Helicobacter pylori Infection” (J Med Chem, 2024)
# Key:
# [1] = Metabolic stability in mouse liver microsomes assessed as half life at 1.25 uM preincubated for 5 mins followed by NADPH addition measured upto 120 mins by LC-MS/MS analysis; format: ADME, Microsome; settings: time < 125 min
# [2] = Metabolic stability in human liver microsomes assessed as hepatic clearance at 1.25 uM preincubated for 5 mins followed by NADPH addition measured upto 120 mins by LC-MS/MS analysis; format: ADME, Microsome; settings: time < 125 min
# [3] = molecular target: T1, Nucleotide-binding oligomerization domain-containing protein 1 (Mus musculus, UniProt Q8BHB0); experiment: Antagonist activity at mouse NOD1 expressed in HEK-Blue cells assessed as decrease in SEAP secretion incubated for 3 hrs followed by C12-iE-DAP stimulation for 20 hrs by spectrophotometry; format: cell-based, HEK-Blue mNOD1
# T1 sequence (Q8BHB0 whole entry): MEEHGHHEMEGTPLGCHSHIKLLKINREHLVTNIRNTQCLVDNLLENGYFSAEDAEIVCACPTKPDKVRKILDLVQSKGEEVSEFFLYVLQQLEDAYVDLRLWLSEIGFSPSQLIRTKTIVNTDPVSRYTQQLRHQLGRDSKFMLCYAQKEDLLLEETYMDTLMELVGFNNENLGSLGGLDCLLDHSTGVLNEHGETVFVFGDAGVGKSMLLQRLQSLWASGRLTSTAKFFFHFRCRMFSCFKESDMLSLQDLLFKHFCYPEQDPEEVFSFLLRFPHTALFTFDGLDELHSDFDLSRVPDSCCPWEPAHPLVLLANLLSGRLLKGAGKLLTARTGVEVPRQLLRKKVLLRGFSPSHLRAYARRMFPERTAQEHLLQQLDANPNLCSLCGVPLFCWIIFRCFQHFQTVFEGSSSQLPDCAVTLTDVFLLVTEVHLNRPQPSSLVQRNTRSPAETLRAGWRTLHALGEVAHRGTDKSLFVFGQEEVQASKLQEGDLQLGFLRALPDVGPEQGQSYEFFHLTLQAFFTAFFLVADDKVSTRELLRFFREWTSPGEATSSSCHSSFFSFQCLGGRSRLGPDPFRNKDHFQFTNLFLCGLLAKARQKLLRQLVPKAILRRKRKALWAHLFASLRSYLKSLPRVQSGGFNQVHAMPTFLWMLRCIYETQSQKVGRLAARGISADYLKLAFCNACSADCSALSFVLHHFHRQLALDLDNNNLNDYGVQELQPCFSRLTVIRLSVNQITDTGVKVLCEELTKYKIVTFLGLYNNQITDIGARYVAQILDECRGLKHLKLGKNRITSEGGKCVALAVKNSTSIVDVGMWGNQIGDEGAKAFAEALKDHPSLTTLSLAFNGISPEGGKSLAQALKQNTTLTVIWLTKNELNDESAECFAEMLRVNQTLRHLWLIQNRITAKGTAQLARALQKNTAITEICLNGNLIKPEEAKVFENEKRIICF
# [4] = Metabolic stability in human liver microsomes assessed as intrinsic clearance at 1.25 uM preincubated for 5 mins followed by NADPH addition measured upto 120 mins by LC-MS/MS analysis; format: ADME, Microsome; settings: time < 125 min, read-out: CLH
# [5] = molecular target: T2, Nucleotide-binding oligomerization domain-containing protein 1 (Mus musculus) (UniProt Q8BHB0); experiment: Antagonist activity at mouse NOD1 expressed in HEK-Blue cells assessed as decrease in SEAP secretion at 1 uM incubated for 3 hrs followed by C12-iE-DAP stimulation for 20 hrs by spectrophotometry relative to control; format: cell-based; settings: HEK-Blue mNOD1, filed as antagonist, time 23.0 hrs
# T2 sequence (whole entry): T1 sequence (Q8BHB0 whole entry)
# [6] = Metabolic stability in mouse liver microsomes assessed as hepatic clearance at 1.25 uM preincubated for 5 mins followed by NADPH addition measured upto 120 mins by LC-MS/MS analysis; format: ADME, Microsome; settings: time < 125 min
# [7] = Metabolic stability in mouse liver microsomes assessed as intrinsic clearance at 1.25 uM preincubated for 5 mins followed by NADPH addition measured upto 120 mins by LC-MS/MS analysis; format: ADME, Microsome; settings: time < 125 min, read-out: CLH
# [8] = Metabolic stability in human liver microsomes assessed as half life at 1.25 uM preincubated for 5 mins followed by NADPH addition measured upto 120 mins by LC-MS/MS analysis; format: ADME, Microsome; settings: time < 125 min
# [9] = molecular target: T3, Nucleotide-binding oligomerization domain-containing protein 2 (Homo sapiens, UniProt Q9HC29); experiment: Inhibition of human NOD2 at 1 uM relative to control
# [10] = molecular target: T3, Nucleotide-binding oligomerization domain-containing protein 2; experiment: Antagonist activity at human NOD2 expressed in HEK293 cells assessed as decrease in MDP-stimulated IL-8 release incubated for 24 hrs by fluorescence based assay; format: cell-based
# [11] = molecular target: T2, Nucleotide-binding oligomerization domain-containing protein 1 (Mus musculus); experiment: Antagonist activity at mouse NOD1 expressed in HEK-Blue cells assessed as decrease in SEAP secretion at 5 uM incubated for 3 hrs followed by C12-iE-DAP stimulation for 20 hrs by spectrophotometry relative to control; format: cell-based; settings: HEK-Blue mNOD1, filed as antagonist, time 23.0 hrs
# [12] = molecular target: Toll-like receptor 4 (Homo sapiens) (UniProt O00206); experiment: Inhibition of human TLR4 at 1 uM relative to control
# [13] = molecular target: T4, Nucleotide-binding oligomerization domain-containing protein 1 (Homo sapiens, UniProt Q9Y239); experiment: Antagonist activity at human NOD1 expressed in HEK-Blue cells assessed as decrease in SEAP secretion incubated for 3 hrs followed by C12-iE-DAP stimulation for 20 hrs by spectrophotometry; format: cell-based, HEK-Blue hNOD1
# T4 sequence (Q9Y239 whole entry): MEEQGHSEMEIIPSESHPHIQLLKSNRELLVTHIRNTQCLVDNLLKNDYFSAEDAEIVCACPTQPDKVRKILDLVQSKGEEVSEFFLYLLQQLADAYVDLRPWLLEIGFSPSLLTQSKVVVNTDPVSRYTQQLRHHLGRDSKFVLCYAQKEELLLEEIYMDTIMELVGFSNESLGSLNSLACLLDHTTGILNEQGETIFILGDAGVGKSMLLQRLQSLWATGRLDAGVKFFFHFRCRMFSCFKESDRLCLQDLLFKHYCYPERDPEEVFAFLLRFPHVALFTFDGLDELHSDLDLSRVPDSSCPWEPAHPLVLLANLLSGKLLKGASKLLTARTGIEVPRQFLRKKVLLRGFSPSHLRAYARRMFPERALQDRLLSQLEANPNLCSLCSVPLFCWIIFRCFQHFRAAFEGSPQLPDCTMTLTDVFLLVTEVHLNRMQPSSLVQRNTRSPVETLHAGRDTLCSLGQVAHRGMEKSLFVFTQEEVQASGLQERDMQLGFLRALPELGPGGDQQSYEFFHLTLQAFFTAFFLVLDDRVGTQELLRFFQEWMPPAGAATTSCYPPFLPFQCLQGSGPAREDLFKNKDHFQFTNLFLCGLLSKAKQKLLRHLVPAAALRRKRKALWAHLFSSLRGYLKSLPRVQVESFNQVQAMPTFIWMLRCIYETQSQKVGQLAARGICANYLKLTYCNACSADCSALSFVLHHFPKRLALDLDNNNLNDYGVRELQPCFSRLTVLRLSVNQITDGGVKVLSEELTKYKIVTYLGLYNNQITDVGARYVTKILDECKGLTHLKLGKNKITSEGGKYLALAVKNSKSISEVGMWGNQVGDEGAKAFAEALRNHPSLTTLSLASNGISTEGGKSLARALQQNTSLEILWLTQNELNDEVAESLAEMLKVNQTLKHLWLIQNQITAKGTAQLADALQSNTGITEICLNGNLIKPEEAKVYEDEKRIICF
# [14] = molecular target: T5, Nucleotide-binding oligomerization domain-containing protein 2 (Mus musculus) (UniProt Q8K3Z0); experiment: Inhibition of mouse NOD2 at 1 uM relative to control
# T5 sequence (whole entry): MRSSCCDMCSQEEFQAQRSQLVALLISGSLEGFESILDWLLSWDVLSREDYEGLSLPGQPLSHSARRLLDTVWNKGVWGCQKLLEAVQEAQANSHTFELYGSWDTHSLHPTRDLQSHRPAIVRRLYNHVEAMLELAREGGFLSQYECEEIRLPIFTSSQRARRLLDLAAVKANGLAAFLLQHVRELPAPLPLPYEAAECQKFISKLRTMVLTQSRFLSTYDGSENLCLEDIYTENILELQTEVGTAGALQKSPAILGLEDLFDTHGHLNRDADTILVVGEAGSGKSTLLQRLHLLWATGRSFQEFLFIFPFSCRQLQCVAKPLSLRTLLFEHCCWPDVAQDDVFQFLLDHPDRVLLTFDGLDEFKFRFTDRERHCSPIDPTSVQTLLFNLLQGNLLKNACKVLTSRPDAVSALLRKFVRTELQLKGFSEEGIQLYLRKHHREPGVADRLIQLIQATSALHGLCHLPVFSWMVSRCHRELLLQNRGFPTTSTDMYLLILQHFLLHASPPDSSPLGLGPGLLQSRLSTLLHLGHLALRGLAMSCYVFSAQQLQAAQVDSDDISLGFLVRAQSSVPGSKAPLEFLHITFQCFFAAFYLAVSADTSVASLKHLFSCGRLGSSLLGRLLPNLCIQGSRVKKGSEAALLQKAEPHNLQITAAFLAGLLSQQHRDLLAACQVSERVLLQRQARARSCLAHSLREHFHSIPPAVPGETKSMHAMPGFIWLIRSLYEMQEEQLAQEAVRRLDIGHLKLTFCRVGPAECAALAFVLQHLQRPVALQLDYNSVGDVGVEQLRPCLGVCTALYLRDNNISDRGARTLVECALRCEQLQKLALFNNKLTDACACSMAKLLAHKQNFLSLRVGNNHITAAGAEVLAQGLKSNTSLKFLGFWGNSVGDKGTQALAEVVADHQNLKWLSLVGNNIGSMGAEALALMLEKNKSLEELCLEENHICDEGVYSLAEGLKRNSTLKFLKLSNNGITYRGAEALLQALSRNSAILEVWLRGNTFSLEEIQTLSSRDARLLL
# [15] = Solubility of compound in phosphate buffer at pH 7.2 to 7.4; format: physicochemical
# [16] = molecular target: Receptor-interacting serine/threonine-protein kinase 2 (Homo sapiens) (UniProt O43353); experiment: Inhibition of RIP2 (unknown origin) at 10 uM relative to control
# [17] = Metabolic stability in human hepatocytes assessed as intrinsic clearance measured per million cells at 10 uM measured after 120 mins by LC-MS analysis; format: ADME, cell-based, Hepatocyte; settings: read-out: CLH
# [18] = Metabolic stability in human hepatocytes assessed as half life at 10 uM measured after 120 mins by LC-MS analysis; format: ADME, cell-based, Hepatocyte
# [19] = Metabolic stability in human hepatocytes assessed as hepatic clearance at 10 uM measured after 120 mins by LC-MS analysis; format: ADME, cell-based, Hepatocyte
# [20] = Metabolic stability in mouse hepatocytes assessed as intrinsic clearance measured per million cells at 10 uM measured after 120 mins by LC-MS analysis; format: ADME, cell-based, Hepatocyte; settings: 2 h
# [21] = Metabolic stability in mouse hepatocytes assessed as half life at 10 uM measured after 120 mins by LC-MS analysis; format: ADME, cell-based, Hepatocyte
# T3 sequence (Q9HC29 whole entry, the tested form may be a part): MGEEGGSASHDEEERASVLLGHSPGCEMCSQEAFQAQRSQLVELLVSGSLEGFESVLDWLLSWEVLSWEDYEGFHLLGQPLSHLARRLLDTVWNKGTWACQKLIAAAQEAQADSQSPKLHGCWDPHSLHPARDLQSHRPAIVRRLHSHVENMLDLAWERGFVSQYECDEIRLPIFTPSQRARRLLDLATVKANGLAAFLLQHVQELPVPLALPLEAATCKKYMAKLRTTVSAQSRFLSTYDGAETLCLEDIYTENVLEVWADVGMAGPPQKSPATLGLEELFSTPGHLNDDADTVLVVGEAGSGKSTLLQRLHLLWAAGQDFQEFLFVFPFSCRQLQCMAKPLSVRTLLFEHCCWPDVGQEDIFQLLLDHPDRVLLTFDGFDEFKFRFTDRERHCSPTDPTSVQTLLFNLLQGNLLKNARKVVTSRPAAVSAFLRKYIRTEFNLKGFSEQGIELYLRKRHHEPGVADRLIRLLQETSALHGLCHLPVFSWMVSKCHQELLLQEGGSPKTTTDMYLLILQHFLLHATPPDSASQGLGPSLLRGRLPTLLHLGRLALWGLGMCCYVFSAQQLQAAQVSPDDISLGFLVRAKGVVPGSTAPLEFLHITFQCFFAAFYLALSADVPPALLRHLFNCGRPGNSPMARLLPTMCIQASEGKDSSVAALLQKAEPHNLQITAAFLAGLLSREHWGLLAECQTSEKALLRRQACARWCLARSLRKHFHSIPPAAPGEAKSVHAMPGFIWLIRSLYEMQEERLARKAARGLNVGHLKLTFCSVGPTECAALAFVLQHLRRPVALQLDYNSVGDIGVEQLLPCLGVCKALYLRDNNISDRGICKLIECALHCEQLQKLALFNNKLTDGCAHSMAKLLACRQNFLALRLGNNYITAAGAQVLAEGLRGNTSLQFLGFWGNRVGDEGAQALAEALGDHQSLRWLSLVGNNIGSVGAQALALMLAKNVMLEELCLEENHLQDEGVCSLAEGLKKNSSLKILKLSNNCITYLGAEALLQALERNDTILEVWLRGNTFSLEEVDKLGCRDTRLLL
# Sequence of Receptor-interacting serine/threonine-protein kinase 2 (Homo sapiens) (O43353 whole entry): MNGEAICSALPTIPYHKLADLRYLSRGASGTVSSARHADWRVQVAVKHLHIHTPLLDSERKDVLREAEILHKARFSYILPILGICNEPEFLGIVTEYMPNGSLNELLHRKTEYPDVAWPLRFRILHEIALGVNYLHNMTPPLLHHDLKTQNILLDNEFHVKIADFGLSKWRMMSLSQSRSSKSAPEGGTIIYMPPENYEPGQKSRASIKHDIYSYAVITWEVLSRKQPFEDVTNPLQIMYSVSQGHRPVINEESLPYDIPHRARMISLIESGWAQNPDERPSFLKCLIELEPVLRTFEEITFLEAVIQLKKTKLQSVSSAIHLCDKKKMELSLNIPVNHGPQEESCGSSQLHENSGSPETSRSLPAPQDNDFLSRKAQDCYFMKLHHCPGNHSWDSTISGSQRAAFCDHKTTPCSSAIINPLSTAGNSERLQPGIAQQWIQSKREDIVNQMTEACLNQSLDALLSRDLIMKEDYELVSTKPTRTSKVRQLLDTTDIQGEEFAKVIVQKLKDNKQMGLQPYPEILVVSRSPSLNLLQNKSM
# Sequence of Toll-like receptor 4 (Homo sapiens) (O00206 whole entry, the tested form may be a part): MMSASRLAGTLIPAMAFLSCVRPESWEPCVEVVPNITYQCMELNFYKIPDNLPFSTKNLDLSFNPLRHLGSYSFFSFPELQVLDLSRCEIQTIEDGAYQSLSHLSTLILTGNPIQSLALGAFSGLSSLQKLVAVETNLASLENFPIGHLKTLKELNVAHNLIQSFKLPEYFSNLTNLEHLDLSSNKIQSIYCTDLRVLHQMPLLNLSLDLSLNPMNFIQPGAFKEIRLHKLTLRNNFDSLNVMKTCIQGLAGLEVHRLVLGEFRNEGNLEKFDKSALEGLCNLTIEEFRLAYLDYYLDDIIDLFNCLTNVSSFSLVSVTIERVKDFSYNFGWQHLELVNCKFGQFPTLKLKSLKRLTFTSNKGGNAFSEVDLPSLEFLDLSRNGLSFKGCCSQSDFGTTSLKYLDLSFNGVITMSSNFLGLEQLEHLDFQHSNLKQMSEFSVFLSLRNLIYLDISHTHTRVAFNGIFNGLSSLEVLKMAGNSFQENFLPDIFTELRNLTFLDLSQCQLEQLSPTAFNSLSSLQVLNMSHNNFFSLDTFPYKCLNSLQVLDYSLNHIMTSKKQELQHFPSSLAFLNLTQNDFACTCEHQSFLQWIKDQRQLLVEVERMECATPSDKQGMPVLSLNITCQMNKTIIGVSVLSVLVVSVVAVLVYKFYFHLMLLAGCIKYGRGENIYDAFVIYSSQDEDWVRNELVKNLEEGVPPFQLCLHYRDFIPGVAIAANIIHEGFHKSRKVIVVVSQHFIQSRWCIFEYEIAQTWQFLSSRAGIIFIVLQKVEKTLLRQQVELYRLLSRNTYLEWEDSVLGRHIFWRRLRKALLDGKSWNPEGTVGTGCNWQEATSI
SMILES,half-life at 1.25 µM [1] [min],CLhep predicted at 1.25 µM [2] [mL/min/kg],IC50 [3] [nM],microsomal CLint at 1.25 µM [4] [µL/min/mg],inhibition [5] [%],CLhep predicted at 1.25 µM [6] [mL/min/kg],microsomal CLint at 1.25 µM [7] [µL/min/mg],half-life at 1.25 µM [8] [min],IC50 [13] [nM],further results
O=c1c2cc(Cl)cnc2nc(Cl)n1-c1ccc(Cl)c(NS(=O)(=O)c2ccccc2F)c1,13.9,15.2,187,49.4,84.3,73.2,99.9,28,,
Cc1nc2ccc(Cl)cc2c(=O)n1-c1ccc(Cl)c(NS(=O)(=O)c2ccccc2F)c1,,,6920,,,,,,,inhibition [9]: < 10%; IC50 [10]: > 20000 nM; inhibition [11]: 49.4%
O=c1c2ccncc2nc(Cl)n1-c1ccc(Cl)c(NS(=O)(=O)c2c(F)cccc2F)c1,,,77,,83.7,,,,5.2,inhibition [12]: < 10%; inhibition [9]: < 10%; inhibition [14]: < 10%; solubility [15]: 5.7 µg/mL; inhibition [16]: < 10%
O=c1c2cc(Cl)ncc2nc(Cl)n1-c1ccc(Cl)c(NS(=O)(=O)c2ccccc2F)c1,53,8.3,118,12,85.6,48,26.2,115,1.8,
O=c1c2ccncc2nc(Cl)n1-c1ccc(Cl)c(NS(=O)(=O)c2ccccc2F)c1,> 186,< 6.1,344,< 7.4,83.9,< 22.1,< 7.4,> 186,4.1,hepatocyte CLint at 10 µM [17]: 59.5 µL/min/1e6 cells; half-life at 10 µM [18]: 11.6 min; CLhep predicted at 10 µM [19]: 18.6 mL/min/kg; CLH [20]: 307.2 µL/min; half-life at 10 µM [21]: 2.3 min
O=c1c2nc(Cl)ccc2nc(Cl)n1-c1ccc(Cl)c(NS(=O)(=O)c2ccccc2F)c1,39.1,8.9,193,13.4,84.6,54.7,35.4,104,11,
Cc1nc2ccc(NC(=O)c3cccc(NS(=O)(=O)c4ccc(F)cc4)c3)cc2s1,,,,,,,,,,IC50 [10]: > 50000 nM
